From PMC9329436, “Optimization of the 4-anilinoquin(az)oline scaffold as epidermal growth factor receptor (EGFR) inhibitors for chordoma utilizing a toxicology profiling assay platform” (Scientific Reports, 2022)
Read-outs that look alike come from different tables or passages of the source.

Experiments:
Format in all cases: biochemical
[1] = target: 320 wild-type protein kinases (Homo sapiens, UniProt P04049, Y340D/Y341D); settings: kinase RAF1 Y340D/Y341D (untagged), singlicate
Source text: (§1) Table S4. Profiling of two compounds at two concentrations against 320 wild-type protein kinases; singlicate measurement; Residual activities (% of control).

[2] = target: 320 wild-type protein kinases (Homo sapiens, UniProt P08581); settings: MET, singlicate
Sequence of 320 wild-type protein kinases (Homo sapiens, UniProt P08581) (P08581 25-1390): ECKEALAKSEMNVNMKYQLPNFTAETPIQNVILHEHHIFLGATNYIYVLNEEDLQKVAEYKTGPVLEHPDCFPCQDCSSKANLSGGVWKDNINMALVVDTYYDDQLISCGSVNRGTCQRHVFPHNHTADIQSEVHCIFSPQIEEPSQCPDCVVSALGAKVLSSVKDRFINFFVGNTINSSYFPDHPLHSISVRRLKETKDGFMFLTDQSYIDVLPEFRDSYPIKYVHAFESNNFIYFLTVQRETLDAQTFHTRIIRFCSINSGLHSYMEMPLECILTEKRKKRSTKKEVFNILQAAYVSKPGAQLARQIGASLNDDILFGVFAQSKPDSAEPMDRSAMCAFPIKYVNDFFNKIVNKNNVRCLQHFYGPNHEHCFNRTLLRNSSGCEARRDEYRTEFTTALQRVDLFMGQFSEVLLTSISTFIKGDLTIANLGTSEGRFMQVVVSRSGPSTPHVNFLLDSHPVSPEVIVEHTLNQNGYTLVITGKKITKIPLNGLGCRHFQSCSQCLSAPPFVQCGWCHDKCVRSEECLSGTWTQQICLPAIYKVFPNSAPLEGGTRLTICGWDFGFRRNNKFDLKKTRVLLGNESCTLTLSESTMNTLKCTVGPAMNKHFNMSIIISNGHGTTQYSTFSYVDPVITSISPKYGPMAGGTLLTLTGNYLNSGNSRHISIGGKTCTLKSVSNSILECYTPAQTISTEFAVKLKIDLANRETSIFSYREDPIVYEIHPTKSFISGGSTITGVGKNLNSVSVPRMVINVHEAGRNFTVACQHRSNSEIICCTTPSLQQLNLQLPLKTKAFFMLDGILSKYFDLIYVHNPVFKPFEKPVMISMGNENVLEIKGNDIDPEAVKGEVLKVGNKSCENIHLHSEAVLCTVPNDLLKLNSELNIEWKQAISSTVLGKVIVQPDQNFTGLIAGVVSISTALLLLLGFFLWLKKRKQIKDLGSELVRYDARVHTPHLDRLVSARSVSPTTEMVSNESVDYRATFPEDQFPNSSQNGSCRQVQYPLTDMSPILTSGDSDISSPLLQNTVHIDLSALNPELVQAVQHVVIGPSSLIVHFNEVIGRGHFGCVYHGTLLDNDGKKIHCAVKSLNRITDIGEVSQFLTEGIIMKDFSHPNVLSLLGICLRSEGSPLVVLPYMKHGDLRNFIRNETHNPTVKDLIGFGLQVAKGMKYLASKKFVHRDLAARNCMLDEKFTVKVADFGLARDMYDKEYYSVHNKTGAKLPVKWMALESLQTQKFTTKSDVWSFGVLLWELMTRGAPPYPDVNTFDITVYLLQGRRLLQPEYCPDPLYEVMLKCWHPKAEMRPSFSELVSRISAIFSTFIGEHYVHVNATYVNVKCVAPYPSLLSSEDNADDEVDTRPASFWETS
Source text: as §1

[3] = target: 320 wild-type protein kinases (Homo sapiens, UniProt P24723); settings: PKC-eta, singlicate
Sequence of 320 wild-type protein kinases (Homo sapiens, UniProt P24723) (P24723 whole entry): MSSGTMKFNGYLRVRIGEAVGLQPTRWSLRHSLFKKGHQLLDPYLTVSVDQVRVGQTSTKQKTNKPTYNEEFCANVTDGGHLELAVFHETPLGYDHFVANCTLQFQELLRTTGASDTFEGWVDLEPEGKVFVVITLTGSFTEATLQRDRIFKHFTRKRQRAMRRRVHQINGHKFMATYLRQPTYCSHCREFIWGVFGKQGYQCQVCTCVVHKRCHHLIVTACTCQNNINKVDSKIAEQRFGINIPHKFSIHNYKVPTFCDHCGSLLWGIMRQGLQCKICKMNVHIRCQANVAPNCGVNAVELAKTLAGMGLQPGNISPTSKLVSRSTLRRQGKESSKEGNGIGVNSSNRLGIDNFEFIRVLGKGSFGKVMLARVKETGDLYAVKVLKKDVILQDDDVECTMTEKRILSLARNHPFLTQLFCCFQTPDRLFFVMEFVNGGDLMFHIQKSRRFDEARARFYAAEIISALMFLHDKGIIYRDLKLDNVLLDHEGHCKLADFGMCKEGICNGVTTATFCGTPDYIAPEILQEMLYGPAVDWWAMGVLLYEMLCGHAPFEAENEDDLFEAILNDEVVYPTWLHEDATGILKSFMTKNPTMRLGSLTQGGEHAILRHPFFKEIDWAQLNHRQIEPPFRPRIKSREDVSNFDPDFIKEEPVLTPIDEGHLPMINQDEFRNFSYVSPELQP
Source text: as §1

[4] = target: 320 wild-type protein kinases (Homo sapiens, UniProt P29376); settings: LTK, singlicate
Source text: as §1

[5] = target: 320 wild-type protein kinases (Homo sapiens, UniProt P32298); settings: singlicate
Source text: as §1

[6] = target: T1, 320 wild-type protein kinases (Homo sapiens, UniProt P51817); settings: kinase PRKX, singlicate
T1 sequence (P51817 1-358): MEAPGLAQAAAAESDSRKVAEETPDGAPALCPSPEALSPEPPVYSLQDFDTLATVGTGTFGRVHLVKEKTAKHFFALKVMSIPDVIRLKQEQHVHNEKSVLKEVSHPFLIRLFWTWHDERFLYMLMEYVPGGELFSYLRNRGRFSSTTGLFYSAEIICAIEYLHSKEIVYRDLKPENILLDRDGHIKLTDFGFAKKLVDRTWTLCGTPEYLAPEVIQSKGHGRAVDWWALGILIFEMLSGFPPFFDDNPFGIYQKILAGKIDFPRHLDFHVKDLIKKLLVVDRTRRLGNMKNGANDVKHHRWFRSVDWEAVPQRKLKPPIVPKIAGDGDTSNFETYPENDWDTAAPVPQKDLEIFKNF
Source text: as §1

[7] = target: 320 wild-type protein kinases (Homo sapiens, UniProt P54764); settings: singlicate
Sequence of 320 wild-type protein kinases (Homo sapiens, UniProt P54764) (P54764 20-986): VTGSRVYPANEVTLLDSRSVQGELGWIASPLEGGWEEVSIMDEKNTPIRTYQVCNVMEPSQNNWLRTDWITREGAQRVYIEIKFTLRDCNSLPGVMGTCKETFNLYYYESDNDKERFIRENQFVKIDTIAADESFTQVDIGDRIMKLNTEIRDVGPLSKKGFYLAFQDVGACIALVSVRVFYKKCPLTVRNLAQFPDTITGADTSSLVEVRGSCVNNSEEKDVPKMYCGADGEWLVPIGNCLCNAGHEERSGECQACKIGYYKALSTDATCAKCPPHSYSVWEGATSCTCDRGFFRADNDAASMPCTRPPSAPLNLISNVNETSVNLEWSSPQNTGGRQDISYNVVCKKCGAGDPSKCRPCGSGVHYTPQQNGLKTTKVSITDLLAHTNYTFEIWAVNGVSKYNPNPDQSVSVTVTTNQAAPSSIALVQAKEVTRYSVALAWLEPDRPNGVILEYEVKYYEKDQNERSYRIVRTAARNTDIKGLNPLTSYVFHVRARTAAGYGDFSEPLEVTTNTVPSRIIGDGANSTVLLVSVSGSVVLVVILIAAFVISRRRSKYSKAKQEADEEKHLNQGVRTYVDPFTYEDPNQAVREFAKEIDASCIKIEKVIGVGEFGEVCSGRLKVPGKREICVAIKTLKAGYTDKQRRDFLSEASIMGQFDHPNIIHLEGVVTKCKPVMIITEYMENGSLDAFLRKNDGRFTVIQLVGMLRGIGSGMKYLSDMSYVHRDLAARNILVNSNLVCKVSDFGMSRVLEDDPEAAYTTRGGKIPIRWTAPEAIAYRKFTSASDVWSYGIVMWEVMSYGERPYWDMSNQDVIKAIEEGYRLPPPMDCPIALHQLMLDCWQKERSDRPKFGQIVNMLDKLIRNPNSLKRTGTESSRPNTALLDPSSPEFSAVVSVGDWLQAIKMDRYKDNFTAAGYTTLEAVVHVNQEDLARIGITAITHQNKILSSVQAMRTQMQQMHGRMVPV
Source text: as §1

[8] = target: 320 wild-type protein kinases (Homo sapiens, UniProt P80192); settings: singlicate
Sequence of 320 wild-type protein kinases (Homo sapiens, UniProt P80192) (P80192 whole entry): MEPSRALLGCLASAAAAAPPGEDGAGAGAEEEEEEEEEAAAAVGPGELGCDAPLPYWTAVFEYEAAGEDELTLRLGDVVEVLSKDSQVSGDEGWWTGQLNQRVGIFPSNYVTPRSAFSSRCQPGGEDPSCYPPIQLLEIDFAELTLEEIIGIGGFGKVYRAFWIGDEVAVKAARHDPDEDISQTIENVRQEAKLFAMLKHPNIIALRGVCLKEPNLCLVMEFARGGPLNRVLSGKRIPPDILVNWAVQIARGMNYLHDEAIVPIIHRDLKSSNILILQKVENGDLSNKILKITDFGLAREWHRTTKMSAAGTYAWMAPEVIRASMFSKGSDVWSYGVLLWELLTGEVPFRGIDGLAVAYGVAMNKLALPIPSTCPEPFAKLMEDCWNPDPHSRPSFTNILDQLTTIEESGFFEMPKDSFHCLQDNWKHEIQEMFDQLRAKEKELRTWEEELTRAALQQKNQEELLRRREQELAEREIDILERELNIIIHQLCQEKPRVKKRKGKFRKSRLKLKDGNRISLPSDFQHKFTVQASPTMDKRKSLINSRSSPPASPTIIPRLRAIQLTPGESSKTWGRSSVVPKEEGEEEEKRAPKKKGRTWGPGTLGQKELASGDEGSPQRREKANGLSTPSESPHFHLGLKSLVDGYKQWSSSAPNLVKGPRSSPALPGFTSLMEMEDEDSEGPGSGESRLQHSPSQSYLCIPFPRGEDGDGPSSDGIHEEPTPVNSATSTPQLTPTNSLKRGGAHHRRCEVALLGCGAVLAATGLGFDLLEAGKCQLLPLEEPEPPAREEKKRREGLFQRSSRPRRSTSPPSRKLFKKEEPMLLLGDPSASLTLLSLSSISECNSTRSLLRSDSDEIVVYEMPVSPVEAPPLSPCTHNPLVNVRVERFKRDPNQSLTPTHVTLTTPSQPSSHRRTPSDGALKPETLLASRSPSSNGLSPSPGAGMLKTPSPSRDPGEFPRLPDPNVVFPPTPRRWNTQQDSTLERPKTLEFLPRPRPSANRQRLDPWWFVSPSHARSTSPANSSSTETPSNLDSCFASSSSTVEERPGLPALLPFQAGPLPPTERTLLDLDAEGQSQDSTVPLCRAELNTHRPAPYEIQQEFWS
Source text: as §1

[9] = target: 320 wild-type protein kinases (Homo sapiens, UniProt Q02779); settings: singlicate
Source text: as §1

[10] = target: 320 wild-type protein kinases (Homo sapiens, UniProt Q13177); settings: singlicate
Sequence of 320 wild-type protein kinases (Homo sapiens, UniProt Q13177) (Q13177 whole entry): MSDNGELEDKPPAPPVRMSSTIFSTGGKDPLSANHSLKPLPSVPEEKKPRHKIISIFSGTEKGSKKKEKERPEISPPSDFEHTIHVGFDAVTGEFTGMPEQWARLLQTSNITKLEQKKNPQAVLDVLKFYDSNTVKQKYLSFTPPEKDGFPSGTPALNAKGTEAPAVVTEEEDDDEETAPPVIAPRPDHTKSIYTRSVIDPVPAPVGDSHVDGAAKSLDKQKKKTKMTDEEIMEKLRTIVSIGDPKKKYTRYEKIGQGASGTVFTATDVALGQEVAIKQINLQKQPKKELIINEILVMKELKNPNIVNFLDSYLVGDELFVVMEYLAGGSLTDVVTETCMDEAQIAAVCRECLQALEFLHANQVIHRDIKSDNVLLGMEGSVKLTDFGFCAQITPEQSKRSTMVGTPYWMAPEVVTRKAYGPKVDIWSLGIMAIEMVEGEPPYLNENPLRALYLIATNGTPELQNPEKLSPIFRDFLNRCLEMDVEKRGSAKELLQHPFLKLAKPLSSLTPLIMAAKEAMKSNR
Source text: as §1

[11] = target: T2, 320 wild-type protein kinases (Homo sapiens, UniProt Q6XUX3); settings: kinase RIPK5, singlicate
T2 sequence (Q6XUX3 1-929): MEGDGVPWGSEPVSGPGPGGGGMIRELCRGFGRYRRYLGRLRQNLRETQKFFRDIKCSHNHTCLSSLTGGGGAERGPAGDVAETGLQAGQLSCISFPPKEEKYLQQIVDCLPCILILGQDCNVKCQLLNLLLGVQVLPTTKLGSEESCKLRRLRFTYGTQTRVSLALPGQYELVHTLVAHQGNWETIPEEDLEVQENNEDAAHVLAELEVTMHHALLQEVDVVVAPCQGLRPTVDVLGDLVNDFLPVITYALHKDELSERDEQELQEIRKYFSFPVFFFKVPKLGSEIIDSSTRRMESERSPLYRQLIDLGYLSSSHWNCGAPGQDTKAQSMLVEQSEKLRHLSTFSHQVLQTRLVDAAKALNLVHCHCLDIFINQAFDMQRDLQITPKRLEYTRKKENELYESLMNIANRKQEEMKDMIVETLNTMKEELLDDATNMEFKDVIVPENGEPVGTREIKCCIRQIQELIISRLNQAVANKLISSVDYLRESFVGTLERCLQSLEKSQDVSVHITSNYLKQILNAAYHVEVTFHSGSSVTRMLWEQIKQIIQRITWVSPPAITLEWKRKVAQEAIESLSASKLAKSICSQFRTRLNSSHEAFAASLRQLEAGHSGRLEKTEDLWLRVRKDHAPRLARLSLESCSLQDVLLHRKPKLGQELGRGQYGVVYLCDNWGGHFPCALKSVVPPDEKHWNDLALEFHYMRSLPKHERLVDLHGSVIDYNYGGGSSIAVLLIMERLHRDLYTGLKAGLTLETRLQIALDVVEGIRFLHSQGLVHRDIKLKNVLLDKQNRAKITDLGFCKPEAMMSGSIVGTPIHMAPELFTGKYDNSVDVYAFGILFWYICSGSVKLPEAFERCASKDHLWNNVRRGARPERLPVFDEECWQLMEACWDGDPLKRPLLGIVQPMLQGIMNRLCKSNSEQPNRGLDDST
Source text: as §1

Compound	Residual activity, RAF1 Y340D/Y341D (untagged) ([1]; assay conc. 1.0E-06 M)	Residual activity, RAF1 Y340D/Y341D (untagged) ([1]; assay conc. 1.0E-07 M)	Residual activity ([2]; 1.0E-06 M)	Residual activity ([2]; 1.0E-07 M)	Residual activity ([3]; 1.0E-06 M)	Residual activity ([3]; 1.0E-07 M)	Residual activity ([4]; 1.0E-06 M)	Residual activity ([4]; 1.0E-07 M)	Residual activity ([5]; GRK4, 1.0E-06 M)	Residual activity ([5]; GRK4, 1.0E-07 M)	Residual activity, PRKX ([6]; assay conc. 1.0E-06 M)	Residual activity, PRKX ([6]; assay conc. 1.0E-07 M)	Residual activity ([7]; EPHA4, 1.0E-06 M)	Residual activity ([7]; EPHA4, 1.0E-07 M)	Residual activity ([8]; MAP3K9, 1.0E-06 M)	Residual activity ([8]; MAP3K9, 1.0E-07 M)	Residual activity ([9]; MAP3K10, 1.0E-06 M)	Residual activity ([9]; MAP3K10, 1.0E-07 M)	Residual activity ([10]; PAK2, 1.0E-06 M)	Residual activity ([10]; PAK2, 1.0E-07 M)	other results
C#Cc1cc(Nc2ncnc3cc(I)ccc23)ccc1Cl [Compound 41]	99 % of control	95 % of control	89 % of control	93 % of control	91 % of control	93 % of control	77 % of control	106 % of control	113 % of control	128 % of control	123 % of control	138 % of control	83 % of control	96 % of control	87 % of control	97 % of control	93 % of control	102 % of control	102 % of control	108 % of control	Residual activity, RIPK5 ([11]; assay conc. 1.0E-06 M): 85 % of control; Residual activity, RIPK5 ([11]; assay conc. 1.0E-07 M): 96 % of control
C#Cc1cc(Nc2ncnc3cc(OC)c(OC)cc23)ccc1Cl [Compound 45]	88 % of control	83 % of control	70 % of control	99 % of control	75 % of control	90 % of control	54 % of control	100 % of control	126 % of control	121 % of control	118 % of control	117 % of control	61 % of control	99 % of control	61 % of control	92 % of control	86 % of control	92 % of control	104 % of control	101 % of control	Residual activity, RIPK5 ([11]; assay conc. 1.0E-06 M): 71 % of control; Residual activity, RIPK5 ([11]; assay conc. 1.0E-07 M): 84 % of control
